Test results: publication PMC10218596 (International Journal of Molecular Sciences, 2023)
Where a SMILES comes first, the peptide text is derived from it. Bridges are numbered along the chain shown (N, C = ends).

Legend:
hα6/α3β4S165I = target: T1, hα6/α3β4S165I (Homo sapiens, UniProt P30926+Q15825, S191I); type: cell-based
T1 construct: formed by splicing the N-terminal extracellular domain of the α6 subunit with the α3 subunit; human nAChR α3 subunit (CHRNA3); expressed in transfected cells; host or cells: Xenopus laevis oocytes injected with cRNA (plasmids from the University of Utah)

h[α6N58K/α3]β4 = target: T2, h[α6N58K/α3]β4 (Homo sapiens, UniProt P30926+P32297+Q15825, N91K); type: cell-based
T2 construct: formed by splicing the N-terminal extracellular domain of the α6 subunit with the α3 subunit; human nAChR α3 subunit (CHRNA3); expressed in transfected cells; host or cells: Xenopus laevis oocytes injected with cRNA (plasmids from the University of Utah)

hα6/α3β4V115I = target: T3, hα6/α3β4V115I (Homo sapiens, UniProt P30926+Q15825, V141I); assay: cell-based
T3 construct: splicing the N-terminal extracellular domain of the α6 subunit with the α3 subunit; mutant made by PCR mutagenesis; host or cells: Xenopus laevis oocytes injected with cRNA
T3 sequence (Q15825 26-239 limits assumed): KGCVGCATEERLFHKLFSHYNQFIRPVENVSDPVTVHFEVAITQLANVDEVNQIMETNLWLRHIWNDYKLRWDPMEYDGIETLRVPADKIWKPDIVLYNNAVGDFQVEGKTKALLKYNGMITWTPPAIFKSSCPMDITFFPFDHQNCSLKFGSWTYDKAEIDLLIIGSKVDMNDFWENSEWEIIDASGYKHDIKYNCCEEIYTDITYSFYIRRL
T3 sequence (P30926 22-498 V141I): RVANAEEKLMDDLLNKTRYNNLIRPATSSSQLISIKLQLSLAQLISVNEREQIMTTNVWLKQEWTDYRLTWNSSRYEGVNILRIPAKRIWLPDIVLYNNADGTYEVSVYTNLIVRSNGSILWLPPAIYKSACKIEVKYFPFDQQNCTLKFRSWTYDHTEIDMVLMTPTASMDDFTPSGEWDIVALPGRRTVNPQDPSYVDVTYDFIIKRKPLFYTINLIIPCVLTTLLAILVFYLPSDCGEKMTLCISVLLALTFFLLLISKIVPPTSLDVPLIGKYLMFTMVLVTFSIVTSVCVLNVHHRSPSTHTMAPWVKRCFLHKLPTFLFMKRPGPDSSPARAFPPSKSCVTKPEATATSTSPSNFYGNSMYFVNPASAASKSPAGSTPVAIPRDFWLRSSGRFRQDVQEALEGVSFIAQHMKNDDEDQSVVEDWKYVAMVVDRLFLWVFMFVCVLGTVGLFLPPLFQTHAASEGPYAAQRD

h[α6I176V/α3]β4 = target: T4, h[α6I176V/α3]β4 (Homo sapiens, UniProt P30926+P32297+Q15825, I209V); type: cell-based
T4 construct: formed by splicing the N-terminal extracellular domain of the α6 subunit with the α3 subunit; fusion partner: remainder of the human α3 subunit (CHRNA3); expressed in transfected cells; host or cells: Xenopus laevis oocytes injected with cRNA

rα6/α3β4 = target: T5, rα6/α3β4 (Rattus norvegicus, UniProt P04757+P12392+P43143); type: cell-based
T5 construct: formed by splicing the N-terminal extracellular domain of the α6 subunit with the α3 subunit; fusion partner: remainder of the rat α3 subunit (Chrna3); expressed in transfected cells; host or cells: Xenopus laevis oocytes injected with cRNA

h[α6K7T/α3]β4 = target: T6, h[α6K7T/α3]β4 (Homo sapiens, UniProt P30926+P32297+Q15825, K40T); type: cell-based
T6 construct: formed by splicing the N-terminal extracellular domain of the α6 subunit with the α3 subunit; human nAChR α3 subunit (CHRNA3); expressed in transfected cells; host or cells: Xenopus laevis oocytes injected with cRNA (plasmids from the University of Utah)
T6 sequence (Q15825+P32297 fused with the stated changes): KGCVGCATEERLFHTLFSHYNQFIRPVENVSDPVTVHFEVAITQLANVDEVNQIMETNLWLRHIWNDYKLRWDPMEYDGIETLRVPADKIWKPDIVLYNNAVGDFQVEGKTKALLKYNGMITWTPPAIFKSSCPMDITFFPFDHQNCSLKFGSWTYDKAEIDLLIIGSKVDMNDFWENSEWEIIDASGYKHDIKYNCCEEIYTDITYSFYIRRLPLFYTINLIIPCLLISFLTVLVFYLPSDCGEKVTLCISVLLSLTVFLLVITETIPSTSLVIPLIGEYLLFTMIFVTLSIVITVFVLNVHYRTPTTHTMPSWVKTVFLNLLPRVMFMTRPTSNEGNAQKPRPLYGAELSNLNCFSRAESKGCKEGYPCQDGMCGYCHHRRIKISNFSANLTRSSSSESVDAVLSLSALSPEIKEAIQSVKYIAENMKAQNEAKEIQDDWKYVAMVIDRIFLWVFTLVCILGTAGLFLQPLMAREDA
T6 sequence (P30926 22-498): as the sequence (P30926 22-498 V141I) above, with I120V counted along it

h[α6R63C/α3]β4 [1] = target: T7, h[α6R63C/α3]β4 (Homo sapiens, UniProt P30926+P32297+Q15825, R96C); type: cell-based
T7 construct: formed by splicing the N-terminal extracellular domain of the α6 subunit with the α3 subunit; human nAChR α3 subunit (CHRNA3); expressed in transfected cells; host or cells: Xenopus laevis oocytes injected with cRNA (plasmids from the University of Utah)

h[α6R63C/α3]β4 [2] = type: cell-based, human
[3] = target: T8, h[α6V32L, K61R/α3]β4L107V,V115I (Homo sapiens, UniProt P30926+P32297+Q15825, K94R/L133V/V141I/V65L); assay: cell-based
T8 construct: formed by splicing the N-terminal extracellular domain of the α6 subunit with the α3 subunit; fusion partner: remainder of the human α3 subunit (CHRNA3); expressed in transfected cells; host or cells: Xenopus laevis oocytes injected with cRNA
T8 sequence (Q15825+P32297 fused with the stated changes): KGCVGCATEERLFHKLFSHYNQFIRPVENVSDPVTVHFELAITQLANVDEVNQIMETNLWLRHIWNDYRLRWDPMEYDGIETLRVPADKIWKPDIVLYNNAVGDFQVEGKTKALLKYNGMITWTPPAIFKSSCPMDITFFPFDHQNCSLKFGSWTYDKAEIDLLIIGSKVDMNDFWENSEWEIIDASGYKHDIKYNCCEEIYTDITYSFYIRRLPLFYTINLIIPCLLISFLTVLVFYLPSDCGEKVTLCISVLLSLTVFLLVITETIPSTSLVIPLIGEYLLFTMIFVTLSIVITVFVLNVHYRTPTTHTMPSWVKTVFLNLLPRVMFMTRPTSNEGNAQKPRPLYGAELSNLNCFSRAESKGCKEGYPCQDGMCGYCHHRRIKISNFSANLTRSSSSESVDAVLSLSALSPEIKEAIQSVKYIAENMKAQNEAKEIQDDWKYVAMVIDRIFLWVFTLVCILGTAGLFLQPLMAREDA
T8 sequence (P30926 22-498 L133V/V141I): as the sequence (P30926 22-498 V141I) above, with L112V counted along it

h[α6R3Q/α3]β4 = target: T9, h[α6R3Q/α3]β4 (Homo sapiens, UniProt P30926+P32297+Q15825, R36Q); type: cell-based
T9 construct: formed by splicing the N-terminal extracellular domain of the α6 subunit with the α3 subunit; human nAChR α3 subunit (CHRNA3); expressed in transfected cells; host or cells: Xenopus laevis oocytes injected with cRNA (plasmids from the University of Utah)

rat α6/α3β2β3 nAChR = settings: cited from earlier work
h[α6K81N/α3]β4 [4] = type: cell-based, human
h[α6K81N/α3]β4 [5] = target: T10, h[α6K81N/α3]β4 (Homo sapiens, UniProt P30926+P32297+Q15825, K114N); type: cell-based
T10 construct: formed by splicing the N-terminal extracellular domain of the α6 subunit with the α3 subunit; fusion partner: remainder of the human α3 subunit (CHRNA3); expressed in transfected cells; host or cells: Xenopus laevis oocytes injected with cRNA

hα6/α3β4R70C = target: T11, hα6/α3β4R70C (Homo sapiens, UniProt P30926+Q15825, R96C); type: cell-based
T11 construct: splicing the N-terminal extracellular domain of the α6 subunit with the α3 subunit; mutant made by PCR mutagenesis; host or cells: Xenopus laevis oocytes injected with cRNA

h[α6S10A/α3]β4 [6] = target: T12, h[α6S10A/α3]β4 (Homo sapiens, UniProt P30926+P32297+Q15825, S43A); type: cell-based
T12 construct: formed by splicing the N-terminal extracellular domain of the α6 subunit with the α3 subunit; human nAChR α3 subunit (CHRNA3); expressed in transfected cells; host or cells: Xenopus laevis oocytes injected with cRNA (plasmids from the University of Utah)

h[α6S10A/α3]β4 [7] = type: cell-based, human
h[α6M67T/α3]β4 [8] = type: cell-based, human
h[α6M67T/α3]β4 [9] = target: T13, h[α6M67T/α3]β4 (Homo sapiens, UniProt P30926+P32297+Q15825, M100T); type: cell-based
T13 construct: formed by splicing the N-terminal extracellular domain of the α6 subunit with the α3 subunit; fusion partner: remainder of the human α3 subunit (CHRNA3); expressed in transfected cells; host or cells: Xenopus laevis oocytes injected with cRNA

h[α6K61R/α3]β4 = target: T14, h[α6K61R/α3]β4 (Homo sapiens, UniProt P30926+P32297+Q15825, K94R); assay: cell-based
T14 construct: formed by splicing the N-terminal extracellular domain of the α6 subunit with the α3 subunit; human nAChR α3 subunit (CHRNA3); expressed in transfected cells; host or cells: Xenopus laevis oocytes injected with cRNA (plasmids from the University of Utah)
T14 sequence (Q15825+P32297 fused with the stated changes): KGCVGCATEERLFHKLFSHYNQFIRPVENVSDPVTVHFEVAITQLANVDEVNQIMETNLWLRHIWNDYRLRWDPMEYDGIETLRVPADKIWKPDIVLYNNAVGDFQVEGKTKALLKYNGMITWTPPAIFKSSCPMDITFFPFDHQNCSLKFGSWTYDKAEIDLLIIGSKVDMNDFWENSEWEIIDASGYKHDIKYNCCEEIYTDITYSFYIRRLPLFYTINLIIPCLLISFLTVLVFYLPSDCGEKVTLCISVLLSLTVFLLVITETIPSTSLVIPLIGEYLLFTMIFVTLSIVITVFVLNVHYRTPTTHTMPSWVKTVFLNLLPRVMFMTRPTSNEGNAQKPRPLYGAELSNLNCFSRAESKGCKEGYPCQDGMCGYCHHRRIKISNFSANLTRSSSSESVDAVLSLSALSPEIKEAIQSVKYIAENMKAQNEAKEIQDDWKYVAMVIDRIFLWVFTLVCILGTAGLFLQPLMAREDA
T14 sequence (P30926 22-498): as the sequence (P30926 22-498 V141I) above, with I120V counted along it

hα6/α3β4 = target: T15, hα6/α3β4 (Homo sapiens, UniProt P30926+P32297+Q15825); assay: cell-based; type: cell-based
T15 construct: splicing the N-terminal extracellular domain of the α6 subunit with the α3 subunit; host or cells: Xenopus laevis oocytes injected with cRNA (1:1)
T15 sequence (Q15825+P32297 fused with the stated changes): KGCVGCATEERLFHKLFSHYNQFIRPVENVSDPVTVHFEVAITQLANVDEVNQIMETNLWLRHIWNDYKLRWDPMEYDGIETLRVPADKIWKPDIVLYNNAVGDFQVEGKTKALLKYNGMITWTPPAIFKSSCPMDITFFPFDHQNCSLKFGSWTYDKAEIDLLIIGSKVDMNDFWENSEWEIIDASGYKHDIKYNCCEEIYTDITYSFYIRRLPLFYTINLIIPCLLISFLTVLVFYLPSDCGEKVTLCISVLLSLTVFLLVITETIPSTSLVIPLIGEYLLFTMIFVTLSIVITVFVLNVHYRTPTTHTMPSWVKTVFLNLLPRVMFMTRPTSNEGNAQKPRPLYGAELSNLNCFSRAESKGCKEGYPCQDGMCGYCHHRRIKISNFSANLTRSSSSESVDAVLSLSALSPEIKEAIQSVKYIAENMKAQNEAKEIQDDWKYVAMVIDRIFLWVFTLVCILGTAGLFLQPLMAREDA
T15 sequence (P30926 22-498): as the sequence (P30926 22-498 V141I) above, with I120V counted along it

hα6/α3β4L116Q = target: T16, hα6/α3β4L116Q (Homo sapiens, UniProt P30926+Q15825, L142Q); type: cell-based
T16 construct: splicing the N-terminal extracellular domain of the α6 subunit with the α3 subunit; mutant made by PCR mutagenesis; host or cells: Xenopus laevis oocytes injected with cRNA

hα6/α3β4T161S = target: T17, hα6/α3β4T161S (Homo sapiens, UniProt P30926+Q15825, T187S); type: cell-based
T17 construct: formed by splicing the N-terminal extracellular domain of the α6 subunit with the α3 subunit; human nAChR α3 subunit (CHRNA3); expressed in transfected cells; host or cells: Xenopus laevis oocytes injected with cRNA (plasmids from the University of Utah)

[10] = read-out: inhibition of the current response to 100 μM ACh

## CC(C)C[C@@H]1NC(=O)[C@H](CC(=O)O)NC(=O)[C@@H]2CCCN2C(=O)[C@H](Cc2c[nH]cn2)NC(=O)[C@H](CCCCN)NC(=O)[C@H](CC(N)=O)NC(=O)[C@H](CCCNC(=N)N)NC(=O)[C@@H]2CSSC[C@H](NC(=O)CN)C(=O)N[C@@H](CSSC[C@@H](C(N)=O)NC1=O)C(=O)N[C@@H](CO)C(=O)N[C@@H](CC(=O)O)C(=O)N1CCC[C@H]1C(=O)N1CCC[C@H]1C(=O)N2 [TxIB] (H-GCCSDPPCRNKHPDLC-NH2; disulfide 2-8, 3-16)
hα6/α3β4S165I
  Hill Slope: 0.7 (0.6–0.9)
  Ratio (change in TxIB IC50 relative to hα6/α3β4): 1
h[α6N58K/α3]β4
  Hill Slope: 0.9 (0.8–1.1)
  Ratio (change in TxIB IC50 relative to hα6/α3β4): 0.9
hα6/α3β4V115I
  Hill Slope: 0.8 (0.7–0.9)
  Ratio (change in TxIB IC50 relative to hα6/α3β4): 2.8
hα6/α3β4V115I; [10]
  activity at 10 µM: 20.1 ± 3.86%
h[α6I176V/α3]β4
  Hill Slope: 0.8 (0.7–0.9)
  Ratio (change in TxIB IC50 relative to hα6/α3β4): 0.8
rα6/α3β4
  blocking effect: almost no blocking effect
h[α6K7T/α3]β4
  Hill Slope: 0.8 (0.6–0.9)
  Ratio (change in TxIB IC50 relative to hα6/α3β4): 1.4
h[α6R63C/α3]β4 [1]
  Hill Slope: 0.9 (0. 8–1.1)
h[α6R63C/α3]β4 [2]
  Ratio (change in TxIB IC50 relative to hα6/α3β4): 0.9
[3]
  Hill Slope: 0.8 (0.6–0.9)
  Ratio (change in TxIB IC50 relative to hα6/α3β4): 42
  time to full restoration of currents blocked by TxIB: ≤ 1 min
[3]; [10]
  activity at 10 µM: 60.2 ± 8.66%
h[α6R3Q/α3]β4
  Hill Slope: 0.9 (0.8–1.1)
  Ratio (change in TxIB IC50 relative to hα6/α3β4): 0.9
Rat α6/α3β2β3 nAChR
  IC50: 28 nM
h[α6K81N/α3]β4 [4]
  Ratio (change in TxIB IC50 relative to hα6/α3β4): 1.2
h[α6K81N/α3]β4 [5]
  Hill Slope: 0.8 (0.7–0.9)
hα6/α3β4R70C
  Hill Slope: 0.8 (0.7–1.0)
  Ratio (change in TxIB IC50 relative to hα6/α3β4): 0.9
h[α6S10A/α3]β4 [6]
  Hill Slope: 0.8 (0.7–0.9)
h[α6S10A/α3]β4 [7]
  Ratio (change in TxIB IC50 relative to hα6/α3β4): 1.2
h[α6M67T/α3]β4 [8]
  Ratio (change in TxIB IC50 relative to hα6/α3β4): 1.1
h[α6M67T/α3]β4 [9]
  Hill Slope: 0.9 (0.7–1.0)
h[α6K61R/α3]β4
  Hill Slope: 0.8 (0.7–0.9)
  Ratio (change in TxIB IC50 relative to hα6/α3β4): 3.4
h[α6K61R/α3]β4; [10]
  activity at 10 µM: 22.1 ± 4.7%
hα6/α3β4
  Hill Slope: 0.8 (0.8–0.9)
  Ratio (change in TxIB IC50 relative to hα6/α3β4): 1
  blocking effect: completely blocked
  variation of activity between human and murine nAChRs: more than 30 fold
hα6/α3β4; [10]
  activity at 10 µM: 11 ± 5.9%
hα6/α3β4L116Q
  Hill Slope: 0.8 (0.7–0.9)
  Ratio (change in TxIB IC50 relative to hα6/α3β4): 1.7
hα6/α3β4T161S
  Hill Slope: 0.8 (0.6–0.9)
  Ratio (change in TxIB IC50 relative to hα6/α3β4): 1.8
